From ChEMBL document CHEMBL1201862, “PubChem BioAssay data set” (2004)
Calls of active or inactive are those of the source.

Columns and labels:
[1] = target: Eukaryotic translation initiation factor 4E (Mus musculus, UniProt P63073); test: blockers of eIF4G binding by eIF4E – biochemical, TR-FRET, dose response (AID 855); format: functional;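 further: potency for disrupting eIF4E binding to eIF4GI seen as loss of FRET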
Cytochrome P450 2C19 = Cytochrome P450 2C19 (Homo sapiens, UniProt P33261); test: Cytochrome panel assay with activity outcomes. Panel member name: p450-cyp2c19 Compounds with AC50 equal or less than 10 uM are considered active; format: functional; details: read-out: AC50
[2] = target: T1, RNA-binding protein pos-1 (Caenorhabditis elegans, UniProt G5EF15); test: disruptors of C. elegans POS-1 RNA interaction – biochemical, fluorescence polarization, dose response (AID 1964);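 further: purified POS-1 fused to maltose binding protein made in E. coli; potency of compounds blocking POS-1 binding to fluorescent RNA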
T1 sequence (G5EF15 whole entry): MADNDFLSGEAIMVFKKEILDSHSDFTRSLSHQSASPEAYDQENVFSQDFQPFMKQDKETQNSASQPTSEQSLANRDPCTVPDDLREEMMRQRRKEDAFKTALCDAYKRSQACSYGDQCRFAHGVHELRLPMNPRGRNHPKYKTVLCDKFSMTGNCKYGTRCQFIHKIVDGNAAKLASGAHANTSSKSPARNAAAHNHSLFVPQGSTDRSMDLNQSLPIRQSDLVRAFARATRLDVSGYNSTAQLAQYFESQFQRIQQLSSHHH

[3] = target: T2, Zinc finger protein mex-5 (Caenorhabditis elegans, UniProt Q9XUB2); test: potency of MEX-5 RNA-binding blockers – biochemical, C. elegans, fluorescence polarization, dose response (AID 1960)
T2 sequence (Q9XUB2 whole entry): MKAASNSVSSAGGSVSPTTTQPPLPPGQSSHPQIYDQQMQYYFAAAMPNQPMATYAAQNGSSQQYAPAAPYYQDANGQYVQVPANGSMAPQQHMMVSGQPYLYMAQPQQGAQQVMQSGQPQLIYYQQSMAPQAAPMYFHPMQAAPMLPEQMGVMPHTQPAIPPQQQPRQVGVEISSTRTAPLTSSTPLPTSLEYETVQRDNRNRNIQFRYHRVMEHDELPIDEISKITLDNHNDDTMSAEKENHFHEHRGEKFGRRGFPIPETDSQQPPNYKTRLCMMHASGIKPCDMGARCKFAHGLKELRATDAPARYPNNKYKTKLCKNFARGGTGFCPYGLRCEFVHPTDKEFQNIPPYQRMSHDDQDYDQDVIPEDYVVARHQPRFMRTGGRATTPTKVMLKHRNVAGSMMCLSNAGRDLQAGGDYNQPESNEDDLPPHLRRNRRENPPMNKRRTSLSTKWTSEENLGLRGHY

[4] = viability of PTEN-deleted HCT116 cells – cell-based, HCT116 PTEN knockout, dose response (AID 1047); format: functional;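 further: HCT116 colon tumor cells with PTEN knocked out; cells exposed to compound for 60 hours before readout; potency for loss of cell viability measured by luminescence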
Melanocortin receptor 4 = Melanocortin receptor 4 (Homo sapiens, UniProt P32245); format: functional, cell-based;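 further: Cell-based assay with luminescence read-out, confirmatory dose-response testing for agonist activity of biased ligands at MC4R; human U2OS cells with tagged receptor and beta-arrestin; potency of agonists that increase receptor coupling to beta-arrestin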
[5] = target: T3, Carboxy-terminal domain RNA polymerase II polypeptide A small phosphatase 1 (Homo sapiens, UniProt Q9GZU7); test: CTDSP1 inhibitors, concentration-response, biochemical, absorbance readout, ultra-high-throughput screen actives (AID 540297); format: functional
T3 sequence (Q9GZU7 whole entry): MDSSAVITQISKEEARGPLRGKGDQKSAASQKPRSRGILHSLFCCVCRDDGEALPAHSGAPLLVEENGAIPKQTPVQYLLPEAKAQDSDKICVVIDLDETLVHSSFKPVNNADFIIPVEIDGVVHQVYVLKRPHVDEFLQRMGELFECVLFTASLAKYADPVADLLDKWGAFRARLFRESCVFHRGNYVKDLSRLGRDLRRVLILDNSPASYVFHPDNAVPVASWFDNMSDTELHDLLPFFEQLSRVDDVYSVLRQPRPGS

[6] = viability of uninfected HEp-2 cells – cell-based, HTS, cytotoxicity control for RSV inhibitor project, dose response (AID 2410); format: functional; details: human respiratory syncytial virus
[7] = target: T4, Short transient receptor potential channel 4 (Mus musculus, UniProt Q9QUQ5); test: block of DAMGO-driven TRPC4 calcium entry – cell-based, HEK293 TRPC4/mu-opioid, Fluo-4 calcium, dose response (AID 434942); format: functional;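 further: potency of inhibitors blocking the TRPC4 calcium response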
T4 sequence (Q9QUQ5 whole entry): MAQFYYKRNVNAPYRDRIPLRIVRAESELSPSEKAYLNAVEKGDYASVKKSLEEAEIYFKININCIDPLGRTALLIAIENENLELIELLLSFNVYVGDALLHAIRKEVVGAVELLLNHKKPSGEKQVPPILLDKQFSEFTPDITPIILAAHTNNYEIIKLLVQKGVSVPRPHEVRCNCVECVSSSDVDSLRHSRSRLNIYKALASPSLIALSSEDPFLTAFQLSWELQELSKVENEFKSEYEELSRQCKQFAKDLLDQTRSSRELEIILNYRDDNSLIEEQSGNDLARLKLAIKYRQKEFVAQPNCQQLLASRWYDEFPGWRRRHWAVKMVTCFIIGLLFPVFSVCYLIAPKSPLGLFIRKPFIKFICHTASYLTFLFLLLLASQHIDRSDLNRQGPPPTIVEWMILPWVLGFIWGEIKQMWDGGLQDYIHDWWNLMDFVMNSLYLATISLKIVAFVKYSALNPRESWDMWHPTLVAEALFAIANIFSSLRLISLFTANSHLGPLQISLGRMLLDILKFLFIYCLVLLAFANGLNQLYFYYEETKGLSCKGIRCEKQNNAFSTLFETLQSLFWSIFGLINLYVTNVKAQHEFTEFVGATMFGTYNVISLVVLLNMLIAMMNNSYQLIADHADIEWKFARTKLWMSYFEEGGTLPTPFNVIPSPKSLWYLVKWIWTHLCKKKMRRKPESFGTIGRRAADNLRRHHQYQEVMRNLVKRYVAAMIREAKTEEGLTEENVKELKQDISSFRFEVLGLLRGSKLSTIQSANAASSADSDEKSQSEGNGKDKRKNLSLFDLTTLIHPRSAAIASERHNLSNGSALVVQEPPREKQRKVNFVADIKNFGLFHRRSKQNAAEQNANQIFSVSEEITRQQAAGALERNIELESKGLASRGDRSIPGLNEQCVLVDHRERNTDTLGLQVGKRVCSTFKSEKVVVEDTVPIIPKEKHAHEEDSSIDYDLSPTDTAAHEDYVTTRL

[8] = target: Voltage-dependent T-type calcium channel subunit alpha-1H (Homo sapiens, UniProt O95180); format: functional;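 further: channel activity triggered by adding a high calcium stimulation buffer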
Streptokinase A = target: T5, Streptokinase A (Streptococcus pyogenes serotype M1, UniProt P10520); test: viability-normalized secreted streptokinase activity reduction – plasminogen activation absorbance, OD405, dose response (AID 1914); format: functional, Streptococcus pyogenes M1 GAS;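 further: secreted streptokinase activity via plasminogen activation per viability signal from cell pellet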
T5 sequence (P10520 whole entry): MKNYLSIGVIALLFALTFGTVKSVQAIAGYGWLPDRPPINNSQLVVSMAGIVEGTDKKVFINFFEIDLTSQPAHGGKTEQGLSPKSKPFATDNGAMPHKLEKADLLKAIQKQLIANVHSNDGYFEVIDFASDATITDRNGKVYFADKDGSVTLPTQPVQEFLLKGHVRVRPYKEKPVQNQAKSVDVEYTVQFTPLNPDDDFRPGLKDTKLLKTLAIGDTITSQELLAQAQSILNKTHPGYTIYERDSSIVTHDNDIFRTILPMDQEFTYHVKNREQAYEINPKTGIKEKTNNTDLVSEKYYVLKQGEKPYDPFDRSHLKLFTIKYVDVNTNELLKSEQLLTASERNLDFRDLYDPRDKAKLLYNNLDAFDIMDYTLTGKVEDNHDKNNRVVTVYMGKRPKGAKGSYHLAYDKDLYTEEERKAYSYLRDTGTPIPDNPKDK

Streptococcus = test: GAS UMAA2166 growth inhibition – luminescence, BacTiterGlo, counter-screen for streptokinase expression inhibitor project, dose response (AID 1915); format: functional, organism-based;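 further: potency for reduction of bacterial viability or growth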
[9] = system: Streptococcus sp. 'group A'; test: Streptococcus pyogenes SK(-)GAS viability under kanamycin – luminescence, BacTiterGlo, confirmation, counter-screen for streptokinase expression inhibitor project, dose response (AID 1900); format: functional, organism-based
INS1 = test: INS-1E survival protection against cytokine death – cell-based, luminescence, retest, dose response (AID 449756); format: functional; details: Rattus norvegicus;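 further: cell death triggered by IL-1 beta plus TNF-alpha plus IFN-gamma mixture; protective hits raise ATP signal compared with cytokine alone wells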
[10] = target: T6, Corticotropin-releasing factor receptor 2/Corticotropin-releasing factor-binding protein (Homo sapiens, UniProt P24387+Q13324); test: activators of CRF receptor 2 with binding protein – uHTS hits, confirmation (AID 602473); format: functional; details: read-out: EC50_Mean
T6 sequence (Q13324 whole entry): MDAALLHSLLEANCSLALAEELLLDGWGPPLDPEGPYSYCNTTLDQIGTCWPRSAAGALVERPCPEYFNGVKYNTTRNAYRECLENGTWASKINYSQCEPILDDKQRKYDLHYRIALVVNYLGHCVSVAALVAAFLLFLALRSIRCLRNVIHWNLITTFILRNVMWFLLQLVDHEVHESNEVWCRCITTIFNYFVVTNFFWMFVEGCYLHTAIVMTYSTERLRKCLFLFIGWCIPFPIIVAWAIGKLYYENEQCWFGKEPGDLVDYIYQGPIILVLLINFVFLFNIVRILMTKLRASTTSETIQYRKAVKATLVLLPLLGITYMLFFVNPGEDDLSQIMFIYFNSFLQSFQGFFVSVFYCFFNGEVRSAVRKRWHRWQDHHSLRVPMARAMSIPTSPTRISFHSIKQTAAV
T6 sequence (P24387 whole entry): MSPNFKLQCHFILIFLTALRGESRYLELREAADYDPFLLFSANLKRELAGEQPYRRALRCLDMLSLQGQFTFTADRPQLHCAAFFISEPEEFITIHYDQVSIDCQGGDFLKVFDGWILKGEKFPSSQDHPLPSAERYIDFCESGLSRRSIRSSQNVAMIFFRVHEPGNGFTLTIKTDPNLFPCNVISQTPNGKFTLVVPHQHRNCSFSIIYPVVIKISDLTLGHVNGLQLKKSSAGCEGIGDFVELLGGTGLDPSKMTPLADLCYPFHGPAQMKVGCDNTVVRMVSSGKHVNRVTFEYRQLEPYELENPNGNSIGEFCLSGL

Chain of Eukaryotic translation initiation factor 4E (P63073 whole entry): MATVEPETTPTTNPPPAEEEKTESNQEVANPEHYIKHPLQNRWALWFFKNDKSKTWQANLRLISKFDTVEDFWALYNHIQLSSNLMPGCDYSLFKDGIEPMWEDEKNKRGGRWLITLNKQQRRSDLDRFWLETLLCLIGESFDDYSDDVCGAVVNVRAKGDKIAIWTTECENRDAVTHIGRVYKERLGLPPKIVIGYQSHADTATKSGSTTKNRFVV
Chain of Voltage-dependent T-type calcium channel subunit alpha-1H (O95180 whole entry): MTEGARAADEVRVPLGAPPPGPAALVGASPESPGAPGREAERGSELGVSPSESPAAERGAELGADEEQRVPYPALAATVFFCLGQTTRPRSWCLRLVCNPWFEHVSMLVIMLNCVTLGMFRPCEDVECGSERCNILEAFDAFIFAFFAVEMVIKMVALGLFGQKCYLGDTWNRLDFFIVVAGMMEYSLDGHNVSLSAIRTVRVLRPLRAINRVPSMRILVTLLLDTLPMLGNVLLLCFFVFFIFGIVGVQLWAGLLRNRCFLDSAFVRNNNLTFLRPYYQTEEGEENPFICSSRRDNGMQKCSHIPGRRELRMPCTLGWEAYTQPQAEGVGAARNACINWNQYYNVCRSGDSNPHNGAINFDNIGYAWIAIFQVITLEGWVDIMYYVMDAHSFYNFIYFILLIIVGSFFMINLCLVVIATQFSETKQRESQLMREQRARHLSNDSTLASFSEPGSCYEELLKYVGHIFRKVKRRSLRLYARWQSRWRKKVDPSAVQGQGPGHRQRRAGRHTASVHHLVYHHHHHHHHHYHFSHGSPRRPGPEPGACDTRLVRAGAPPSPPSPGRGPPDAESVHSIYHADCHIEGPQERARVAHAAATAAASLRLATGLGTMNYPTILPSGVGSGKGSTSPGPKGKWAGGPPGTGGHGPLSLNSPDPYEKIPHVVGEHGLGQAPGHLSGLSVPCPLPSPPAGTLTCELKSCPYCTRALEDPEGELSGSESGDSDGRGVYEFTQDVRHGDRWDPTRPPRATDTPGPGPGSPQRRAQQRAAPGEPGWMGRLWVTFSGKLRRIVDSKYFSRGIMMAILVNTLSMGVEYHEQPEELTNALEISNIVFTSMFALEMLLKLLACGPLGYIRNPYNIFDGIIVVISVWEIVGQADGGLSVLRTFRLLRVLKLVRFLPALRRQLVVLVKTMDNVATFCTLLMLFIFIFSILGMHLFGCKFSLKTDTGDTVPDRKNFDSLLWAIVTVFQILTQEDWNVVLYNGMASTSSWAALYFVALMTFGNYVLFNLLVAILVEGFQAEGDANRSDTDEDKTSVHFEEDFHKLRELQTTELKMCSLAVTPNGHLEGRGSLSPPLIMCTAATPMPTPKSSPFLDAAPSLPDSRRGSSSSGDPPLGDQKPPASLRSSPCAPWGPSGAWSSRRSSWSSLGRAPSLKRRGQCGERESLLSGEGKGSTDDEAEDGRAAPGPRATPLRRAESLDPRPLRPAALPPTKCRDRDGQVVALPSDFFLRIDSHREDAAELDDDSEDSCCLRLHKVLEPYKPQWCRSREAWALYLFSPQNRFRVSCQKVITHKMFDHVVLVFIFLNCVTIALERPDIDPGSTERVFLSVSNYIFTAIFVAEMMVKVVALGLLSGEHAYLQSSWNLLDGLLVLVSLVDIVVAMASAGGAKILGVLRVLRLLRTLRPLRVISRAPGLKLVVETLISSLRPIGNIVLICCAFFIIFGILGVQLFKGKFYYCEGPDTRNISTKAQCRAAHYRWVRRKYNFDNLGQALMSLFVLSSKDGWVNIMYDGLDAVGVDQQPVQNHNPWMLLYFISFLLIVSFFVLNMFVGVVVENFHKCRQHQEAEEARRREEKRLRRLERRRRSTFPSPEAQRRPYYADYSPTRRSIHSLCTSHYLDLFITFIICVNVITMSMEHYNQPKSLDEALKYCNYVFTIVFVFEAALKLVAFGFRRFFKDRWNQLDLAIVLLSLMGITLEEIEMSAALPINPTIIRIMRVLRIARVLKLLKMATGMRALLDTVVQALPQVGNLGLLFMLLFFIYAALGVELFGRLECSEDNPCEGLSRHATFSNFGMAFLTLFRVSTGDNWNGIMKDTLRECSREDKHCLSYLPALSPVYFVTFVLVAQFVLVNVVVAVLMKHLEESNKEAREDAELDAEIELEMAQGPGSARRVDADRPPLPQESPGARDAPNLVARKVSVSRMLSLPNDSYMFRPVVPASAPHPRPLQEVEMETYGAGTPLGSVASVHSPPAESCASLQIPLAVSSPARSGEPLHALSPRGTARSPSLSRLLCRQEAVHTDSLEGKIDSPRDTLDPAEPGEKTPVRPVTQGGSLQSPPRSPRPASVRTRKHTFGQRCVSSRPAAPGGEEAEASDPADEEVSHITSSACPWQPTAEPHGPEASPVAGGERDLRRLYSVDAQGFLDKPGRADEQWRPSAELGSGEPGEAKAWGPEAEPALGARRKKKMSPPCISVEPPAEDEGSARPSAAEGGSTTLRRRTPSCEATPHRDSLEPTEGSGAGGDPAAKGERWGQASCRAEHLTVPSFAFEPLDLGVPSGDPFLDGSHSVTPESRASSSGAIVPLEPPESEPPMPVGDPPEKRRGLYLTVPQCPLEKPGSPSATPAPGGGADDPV
Chain of Melanocortin receptor 4 (P32245 whole entry, the tested form may be a part): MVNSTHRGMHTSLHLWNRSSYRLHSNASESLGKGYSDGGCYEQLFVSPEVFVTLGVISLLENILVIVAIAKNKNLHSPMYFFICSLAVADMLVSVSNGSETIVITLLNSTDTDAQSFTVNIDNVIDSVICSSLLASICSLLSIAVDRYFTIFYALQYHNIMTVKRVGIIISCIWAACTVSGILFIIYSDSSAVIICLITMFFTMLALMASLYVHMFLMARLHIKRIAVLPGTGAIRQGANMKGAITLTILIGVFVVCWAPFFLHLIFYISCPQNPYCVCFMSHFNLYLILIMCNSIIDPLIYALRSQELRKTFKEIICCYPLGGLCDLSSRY
Chain of Cytochrome P450 2C19 (P33261 whole entry, the tested form may be a part): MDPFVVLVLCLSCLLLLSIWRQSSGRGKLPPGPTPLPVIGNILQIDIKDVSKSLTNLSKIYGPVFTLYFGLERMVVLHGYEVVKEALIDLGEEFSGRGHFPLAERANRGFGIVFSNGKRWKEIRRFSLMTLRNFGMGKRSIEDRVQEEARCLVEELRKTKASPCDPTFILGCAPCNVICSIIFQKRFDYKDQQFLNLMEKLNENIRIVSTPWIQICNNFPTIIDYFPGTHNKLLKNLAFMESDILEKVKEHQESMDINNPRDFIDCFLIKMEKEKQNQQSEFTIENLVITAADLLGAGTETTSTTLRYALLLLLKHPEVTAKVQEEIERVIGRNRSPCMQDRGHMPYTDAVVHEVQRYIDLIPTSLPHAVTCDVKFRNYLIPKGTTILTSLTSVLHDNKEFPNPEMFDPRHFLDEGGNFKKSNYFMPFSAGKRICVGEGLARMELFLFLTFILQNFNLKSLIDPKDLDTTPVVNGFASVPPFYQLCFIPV

SMILES: COc1ccc(NC2=NCC(=O)N2Cc2cccs2)cc1
- IC50 [1]: > 64 µM (inactive)
- AC50 (Cytochrome P450 2C19): 8.91 µM (inconclusive)

SMILES: Cc1ccc(/N=C/c2nc(-c3ccc(C)cc3)oc2O)cc1
- IC50 [1]: 50 µM (inactive)
- EC50 [2]: 32.6 µM (active)
- EC50 [3]: 68.7 µM (active)

SMILES: Cc1ccc(Cn2nc(C)c(NC(=O)CSc3nc4c(c(C(F)(F)F)n3)CCc3ccccc3-4)c2C)cc1
- IC50 [1]: > 64 µM (inactive)
- EC50 [4]: 21 µM (active)

SMILES: NC(c1csc(NC(=O)Nc2cccc(Cl)c2)n1)C1CCCCC1 (stereo not given)
- EC50 (Melanocortin receptor 4): > 89.2 µM (inactive)

SMILES: COc1ccccc1OCCOc1ccc(/C=C2\C(=N)N3N=C(S(C)(=O)=O)SC3=NC2=O)cc1
- IC50 [5]: 3.6 µM (active)
- CC50 [6]: 22.5 µM (active)

SMILES: CCC(=O)N1CCc2cc(S(=O)(=O)NCCN3CCCCC3CC)ccc21 (stereo not given)
- EC50 [7]: 2.66 µM (active)

SMILES: O=C(COC(=O)c1cccc([N+](=O)[O-])c1)c1ccc2c(c1)OCO2
- EC50 [7]: 0.0027 µM (active)

SMILES: COc1ccc(/C=N/NC(=O)Cc2csc(Nc3cccc(C(F)(F)F)c3)n2)cc1C
- EC50 [8]: 4.82 µM (active)
- EC50 (Streptokinase A): 10.4 µM (active)
- EC50 (Streptococcus): > 150 µM (not active)
- EC50 [9]: 9.89 µM (active)

SMILES: CNC(=O)c1sc(N2N=C3/C(=C/c4ccccc4)CCCC3C2c2ccccc2)nc1C (stereo not given)
- EC50 [8]: 9.13 µM (active)
- AC50 (INS1): 6.72 µM (active)
- EC50 [10]: 16.1 µM (active)

SMILES: CC(C(=O)N1CCCCC1)N1CCN(S(=O)(=O)c2ccc(Cl)cc2)CC1 (stereo not given)
- IC50 [5]: 54.9 µM (active)
